For 30 molecules, EC50 results are on record in patent publication US9920010B2, “CXCR7 receptor modulators” (IDORSIA PHARMACEUTICALS LTD, priority 2013, dated 2018).

The structures appear in SMILES notation. Counter-ions that a name gives are not always drawn.

The test concerns the target T1, CXCR7 (Homo sapiens, UniProt P25106).
T1 construct: host or cells: CHO-K1 (PathHunter CHO-K1 CXCR7 b-arrestin cell line, stably transfected)
In words: PathHunter CHO-K1 CXCR7 b-arrestin recruitment assay (CXCR7 agonistic activity). The class given is cell-based. As to conditions: PathHunter CHO-K1 CXCR7 b-arrestin cell line. In outline:
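Stable CHO-K1 line with C-terminally ProLink-tagged CXCR7 and β-arrestin 2–EA fusion; β-arrestin recruitment restores β-gal activity, read by chemiluminescence after 1 h RT detection. Cells seeded 24 h, starved in OPTIMEM 3–4 h, exposed to compounds 90 min at 37 °C in HBSS/HEPES/BSA. Geometric-mean EC50 from repeated measurements.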
Background: Arrestin recruitment assays detect the binding of arrestin to an activated receptor.

T1 sequence (P25106 whole entry): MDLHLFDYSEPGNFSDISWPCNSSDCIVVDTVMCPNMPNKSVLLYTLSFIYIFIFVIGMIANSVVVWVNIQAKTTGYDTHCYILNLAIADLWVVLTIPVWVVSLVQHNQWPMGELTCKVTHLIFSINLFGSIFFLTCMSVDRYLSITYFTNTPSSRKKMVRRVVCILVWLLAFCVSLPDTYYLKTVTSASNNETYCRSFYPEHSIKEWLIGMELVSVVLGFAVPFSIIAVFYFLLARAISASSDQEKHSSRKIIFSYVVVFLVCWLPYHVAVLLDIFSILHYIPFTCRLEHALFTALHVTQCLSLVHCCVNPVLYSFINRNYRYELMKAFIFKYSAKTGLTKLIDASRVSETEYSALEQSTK
T1 sequence (P32121 whole entry partner): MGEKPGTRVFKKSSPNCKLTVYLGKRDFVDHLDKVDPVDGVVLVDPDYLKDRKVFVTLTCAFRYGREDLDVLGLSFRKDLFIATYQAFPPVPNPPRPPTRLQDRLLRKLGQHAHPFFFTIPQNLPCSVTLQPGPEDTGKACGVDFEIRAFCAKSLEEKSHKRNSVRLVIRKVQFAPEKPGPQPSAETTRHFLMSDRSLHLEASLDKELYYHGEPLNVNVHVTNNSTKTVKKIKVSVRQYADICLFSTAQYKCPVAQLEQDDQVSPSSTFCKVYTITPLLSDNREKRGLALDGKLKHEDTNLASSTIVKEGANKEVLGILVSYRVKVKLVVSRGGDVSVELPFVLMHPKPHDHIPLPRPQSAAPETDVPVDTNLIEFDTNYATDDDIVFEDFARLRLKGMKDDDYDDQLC

In the case of `NC(=O)CCN(Cc1ccccc1)C(=O)/C=C/c1cccc2c1CCN(CC1CC1)C2` [Example 140, (E)-N-Benzyl-N-(2-carbamoyl-ethyl)-3-(2-cyclopropylmethyl-1,2,3,4-tetrahydro-isoquinolin-5-yl)-acrylamide dihydrochloride], a half-maximal effect (EC50) was put at 54 nM.
For `CN(C)CCN(Cc1cccc(OC(F)(F)F)c1)C(=O)CNc1cccc2c1CCN(CC1CC1)C2` [Example 221, 2-(2-Cyclopropylmethyl-1,2,3,4-tetrahydro-isoquinolin-5-ylamino)-N-(2-dimethylamino-ethyl)-N-(3-trifluoromethoxy-benzyl)-acetamide], the EC50 (usually the concentration that produces a half-maximal response) worked out at 9 nM.
To `CCN1CCc2cccc(NCC(=O)N(CCN(C)C)Cc3ccc(C(F)(F)F)cc3)c2C1` [compound 506] belongs 155 nM.
`CN(C)CCN(Cc1ccccc1Cl)C(=O)CNc1cccc2c1CCN(CC1CC1)C2` [compound 134, N-(2-Chloro-benzyl)-2-(2-cyclopropylmethyl-1,2,3,4-tetrahydro-isoquinolin-5-ylamino)-N-(2-dimethylamino-ethyl)-acetamide] showed an EC50 of 2 nM.
Regarding `CN(C)CCN(Cc1ncccc1C(F)(F)F)C(=O)CNc1cccc2c1CCN(C1CCOC1)C2` (racemic) [Example 365, rac-N-(2-Dimethylamino-ethyl)-2-[2-(tetrahydro-furan-3-yl)-1,2,3,4-tetrahydro-isoquinolin-5-ylamino]-N-(3-trifluoromethyl-pyridin-2-ylmethyl)-acetamide], the midpoint of the response, the EC50, lay at 35 nM.
With `CNCCN(Cc1ccccc1C(F)(F)F)C(=O)CNc1cccc2c1CCN(C(=O)C1CCC1)C2` [compound 389, 2-(2-Cyclobutanecarbonyl-1,2,3,4-tetrahydro-isoquinolin-5-ylamino)-N-(2-methylamino-ethyl)-N-(2-trifluoromethyl-benzyl)-acetamide] the figure was 20 nM; with `CC(C)(C)CCN(Cc1ncccc1C(F)(F)F)C(=O)CNc1cccc2c1CCN(CC1CC1)C2` [Example 275, 2-(2-Cyclopropylmethyl-1,2,3,4-tetrahydro-isoquinolin-5-ylamino)-N-(3,3-dimethyl-butyl)-N-(3-trifluoromethyl-pyridin-2-ylmethyl)-acetamide], 43 nM.
As to `COCCN1CCc2c(CCC(=O)N(CCN(C)C(=O)OC(C)(C)C)Cc3ccccc3C(F)(F)F)cccc2C1` [Example 337, {2-[{3-[2-(2-Methoxy-ethyl)-1,2,3,4-tetrahydro-isoquinolin-5-yl]-propionyl}-(2-trifluoromethyl-benzyl)-amino]-ethyl}-methyl-carbamic acid tert-butyl ester], it took 429 nM to reach a half-maximal effect (EC50).
To `CN(C)CCN(Cc1ccccc1OC(F)(F)F)C(=O)CNc1cccc2c1CCN(CC1CC1)C2` [Example 227, 2-(2-Cyclopropylmethyl-1,2,3,4-tetrahydro-isoquinolin-5-ylamino)-N-(2-dimethylamino-ethyl)-N-(2-trifluoromethoxy-benzyl)-acetamide] belongs 6 nM; to `CN(C)CCN(Cc1ccc(Br)cc1)C(=O)CNc1cccc2c1CCN(CC1CC1)C2` [Example 238, N-(4-Bromo-benzyl)-2-(2-cyclopropylmethyl-1,2,3,4-tetrahydro-isoquinolin-5-ylamino)-N-(2-dimethylamino-ethyl)-acetamide], 43 nM.
In turn, `CN(C)CCN(Cc1ccccc1C(F)(F)F)C(=O)CNc1cccc2c1CCN(C(=O)[C@@H]1C[C@@H]1F)C2` (single isomer, unassigned) [Example 363b, N-(2-Dimethylamino-ethyl)-2-[2-((1 S*,2S*)-2-fluoro-cyclopropanecarbonyl)-1,2,3,4-tetrahydro-isoquinolin-5-ylamino]-N-(2-trifluoromethyl-benzyl)-acetamide] showed an EC50 of 5 nM.
`O=C(CNc1cccc2c1CCN(CC1CC1)C2)N(CCNCC(F)(F)F)Cc1ccccc1C(F)(F)F` [Example 434, 2-(2-Cyclopropylmethyl-1,2,3,4-tetrahydro-isoquinolin-5-ylamino)-N-[2-(2,2,2-trifluoro-ethylamino)-ethyl]-N-(2-trifluoromethyl-benzyl)-acetamide] registered an EC50 of 20 nM.
With `CCC(=O)N1CCc2c(cccc2NCC(=O)N(CCN(C)C)Cc2ccccc2F)C1` [Example 23, N-(2-Dimethylamino-ethyl)-N-(2-fluoro-benzyl)-2-(2-propionyl-1,2,3,4-tetrahydro-isoquinolin-5-ylamino)-acetamide] the figure was 16 nM; with `COCCN1CCc2c(/C=C/C(=O)N(CCC(C)(C)C)Cc3ncccc3C)cccc2C1` [Example 320, (E)-N-(3,3-Dimethyl-butyl)-3-[2-(2-methoxy-ethyl)-1,2,3,4-tetrahydro-isoquinolin-5-yl]-N-(3-methyl-pyridin-2-ylmethyl)-acrylamide], 154 nM; with `CCN(CCN(Cc1ccccc1C(F)(F)F)C(=O)CNc1cccc2c1CCN(CC1CC1)C2)C(=O)OC(C)(C)C` [Example 232, {2-[[2-(2-Cyclopropylmethyl-1,2,3,4-tetrahydro-isoquinolin-5-ylamino)-acetyl]-(2-trifluoromethyl-benzyl)-amino]-ethyl}-ethyl-carbamic acid tert-butyl ester], 162 nM.
With `CCN1CCc2cccc(NCC(=O)N(Cc3ccccc3C(F)(F)F)C(C)c3ccn(CC)n3)c2C1` (racemic) [compound 521] the figure was 269 nM.
On to `O=C(CNc1cccc2c1CCN(CC1CC1)C2)N(CCN1CCCCC1)Cc1ccccc1C(F)(F)F` [Example 217, 2-(2-Cyclopropylmethyl-1,2,3,4-tetrahydro-isoquinolin-5-ylamino)-N-(2-piperidin-1-yl-ethyl)-N-(2-trifluoromethyl-benzyl)-acetamide], for which the EC50 turned out to be 2 nM.
`CN(C)CCN(Cc1ccccc1)C(=O)COc1cccc2c1CCN(C(=O)OC(C)(C)C)C2` [Example 101, 5-{[Benzyl-(2-dimethylamino-ethyl)-carbamoyl]-methoxy}-3,4-dihydro-1H-isoquinoline-2-carboxylic acid tert-butyl ester] gave a concentration for a half-maximal effect (EC50) of 148 nM.
To `CN(C)CCN(Cc1ccccc1Cl)C(=O)CNc1cc(C(F)(F)F)cc2c1CCN(CC1CC1)C2` [Example 295, N-(2-Chloro-benzyl)-2-(2-cyclopropylmethyl-7-trifluoromethyl-1,2,3,4-tetrahydro-isoquinolin-5-ylamino)-N-(2-dimethylamino-ethyl)-acetamide] belongs 411 nM; to `CN(C)CCN(Cc1ccc(Nc2ccc(F)cc2)cn1)C(=O)CNc1cccc2c1CCN(CC1CC1)C2` [Example 285, 2-(2-Cyclopropylmethyl-1,2,3,4-tetrahydro-isoquinolin-5-ylamino)-N-(2-dimethylamino-ethyl)-N-[5-(4-fluoro-phenylamino)-pyridin-2-ylmethyl]-acetamide], 408 nM.
With `COCCN1CCc2c(cccc2NCC(=O)N(CCN(C)CCF)Cc2ccccc2C(F)(F)F)C1` [Example 302, N-{2-[(2-Fluoro-ethyl)-methyl-amino]-ethyl}-2-[2-(2-methoxy-ethyl)-1,2,3,4-tetrahydro-isoquinolin-5-ylamino]-N-(2-trifluoromethyl-benzyl)-acetamide] the figure was 27 nM.
To `CN(C)CCN(Cc1ccccc1Cl)C(=O)CCc1cccc2c1CCN(C(=O)OC(C)(C)C)C2` [Example 98, 5-{2-[(2-Chloro-benzyl)-(2-dimethylamino-ethyl)-carbamoyl]-ethyl}-3,4-dihydro-1H-isoquinoline-2-carboxylic acid tert-butyl ester] belongs 224 nM; to `O=C(CNc1cccc2c1CN(CC1CC1)CC2)N(CCN1CCCC1)Cc1ccccc1C(F)(F)F` [compound 565, 2-(2-Cyclopropylmethyl-1,2,3,4-tetrahydro-isoquinolin-8-ylamino)-N-(2-pyrrolidin-1-yl-ethyl)-N-(2-trifluoromethyl-benzyl)-acetamide], 4 nM.
Molecule `CCC(=O)N1CCc2c(cccc2NCC(=O)N(Cc2ccccc2)Cc2nccn2C)C1` [Example 26, N-Benzyl-N-(1-methyl-1H-imidazol-2-ylmethyl)-2-(2-propionyl-1,2,3,4-tetrahydro-isoquinolin-5-ylamino)-acetamide] yielded a concentration giving a half-maximal response (EC50) of 442 nM.
With `CC(C)COC(=O)N1CCc2c(cccc2NCC(=O)N(CCN(C)C)Cc2ccccc2)C1` [compound 122] the figure was 337 nM.
`COCCN1CCc2c(CCC(=O)N(CCN3CCC(F)(F)CC3)Cc3ncccc3Cl)cccc2C1` [Example 345, N-(3-Chloro-pyridin-2-ylmethyl)-N-[2-(4,4-difluoro-piperidin-1-yl)-ethyl]-3-[2-(2-methoxy-ethyl)-1,2,3,4-tetrahydro-isoquinolin-5-yl]-propionamide] registered an EC50 of 400 nM.
To `CN(C)CCCN(Cc1ccccc1)C(=O)CNc1cccc2c1CCN(CC1CC1)C2` [Example 37, N-Benzyl-2-(2-cyclopropylmethyl-1,2,3,4-tetrahydro-isoquinolin-5-ylamino)-N-(3-dimethylamino-propyl)-acetamide] belongs 4 nM; to `COCCN1CCc2c(CCC(=O)N(Cc3ccccc3C(F)(F)F)CC(C)(C)O)cccc2C1` [Example 341, N-(2-Hydroxy-2-methyl-propyl)-3-[2-(2-methoxy-ethyl)-1,2,3,4-tetrahydro-isoquinolin-5-yl]-N-(2-trifluoromethyl-benzyl)-propionamide], 397 nM.
With `O=C(CNc1cccc2c1CCN(CC1CC1)C2)N(Cc1ccccc1C(F)(F)F)C[C@H]1CCNC1` [compound 380] the figure was 6 nM; with `CN(C)CCN(Cc1ccccc1C(F)(F)F)C(=O)NCc1cccc2c1CN(CC1CC1)CC2` [Example 569, 3-(2-Cyclopropylmethyl-1,2,3,4-tetrahydro-isoquinolin-8-ylmethyl)-1-(2-dimethylamino-ethyl)-1-(2-trifluoromethyl-benzyl)-urea], 26 nM.
